Like-named read-outs stand apart in the source and are kept apart here.

In one assay the test system is BT-474. The experiment in a line: In vitro cell proliferation inhibition, WST assay. The settings on record: BT-474 cells, cultured for 3 days, read-out: BT-474 (nM) proliferation inhibitory activity (IC50 value). The class given is cell-based, human. The procedure:
Test of In Vitro Cell Proliferation Inhibition of Test Compound
As a human-derived cancer cell strain, BT-474 was used. Cells were all cultured in a 37° C., 5% CO2 incubator in a medium in which 10% bovine fetal serum (ICN) and 50 units ml penicillin/60 μg/ml streptomycin solution (GIBCO) were added to Dulbecco's Modified Essential Medium (DMEM, Nacalai Tesque, Inc).

Assay [1] concerns NCI-N87 cells (human stomach cancer cell strain). Briefly: in vivo anti-tumor assessment, NCI-N87 cells transplanted into mammary fat pad of nude mouse. The procedure:
NCI-N87 cells (human stomach cancer cell strain) were transplanted into a mammary fat pad of a female nude mouse (BALB/cA Jcl-nu/nu, CLEA Japan, Inc) at 5×10^6 cells/mouse (day 0). On day 5, a long diameter and a short diameter of a tumor were measured with a caliper, and mice were divided into groups (N=6) so that a tumor size between groups became equal. A test compound (20, 80 mg/kg) suspended in a 0.5% methylcellulose (MC) solution was orally administered from day 5 on for 15 consecutive days, and the anti-tumor effect was expressed by a ratio (T/C %) of an average value of a tumor size between a compound-administered group (T) and a control (C, 0.5% MC) group on day 20.
Results of in vivo anti-tumor assessment of a compound VIII-11 are shown in Table 54, and results of in vivo anti-tumor assessment of a compound VIII-66 are shown in Table 55.

The next assay deals with T1, EGFR (Homo sapiens, UniProt P00533).
T1 construct: purchased Carna Biosciences, Inc; host or cells: insect cell expression system
T1 sequence (P00533 25-1210): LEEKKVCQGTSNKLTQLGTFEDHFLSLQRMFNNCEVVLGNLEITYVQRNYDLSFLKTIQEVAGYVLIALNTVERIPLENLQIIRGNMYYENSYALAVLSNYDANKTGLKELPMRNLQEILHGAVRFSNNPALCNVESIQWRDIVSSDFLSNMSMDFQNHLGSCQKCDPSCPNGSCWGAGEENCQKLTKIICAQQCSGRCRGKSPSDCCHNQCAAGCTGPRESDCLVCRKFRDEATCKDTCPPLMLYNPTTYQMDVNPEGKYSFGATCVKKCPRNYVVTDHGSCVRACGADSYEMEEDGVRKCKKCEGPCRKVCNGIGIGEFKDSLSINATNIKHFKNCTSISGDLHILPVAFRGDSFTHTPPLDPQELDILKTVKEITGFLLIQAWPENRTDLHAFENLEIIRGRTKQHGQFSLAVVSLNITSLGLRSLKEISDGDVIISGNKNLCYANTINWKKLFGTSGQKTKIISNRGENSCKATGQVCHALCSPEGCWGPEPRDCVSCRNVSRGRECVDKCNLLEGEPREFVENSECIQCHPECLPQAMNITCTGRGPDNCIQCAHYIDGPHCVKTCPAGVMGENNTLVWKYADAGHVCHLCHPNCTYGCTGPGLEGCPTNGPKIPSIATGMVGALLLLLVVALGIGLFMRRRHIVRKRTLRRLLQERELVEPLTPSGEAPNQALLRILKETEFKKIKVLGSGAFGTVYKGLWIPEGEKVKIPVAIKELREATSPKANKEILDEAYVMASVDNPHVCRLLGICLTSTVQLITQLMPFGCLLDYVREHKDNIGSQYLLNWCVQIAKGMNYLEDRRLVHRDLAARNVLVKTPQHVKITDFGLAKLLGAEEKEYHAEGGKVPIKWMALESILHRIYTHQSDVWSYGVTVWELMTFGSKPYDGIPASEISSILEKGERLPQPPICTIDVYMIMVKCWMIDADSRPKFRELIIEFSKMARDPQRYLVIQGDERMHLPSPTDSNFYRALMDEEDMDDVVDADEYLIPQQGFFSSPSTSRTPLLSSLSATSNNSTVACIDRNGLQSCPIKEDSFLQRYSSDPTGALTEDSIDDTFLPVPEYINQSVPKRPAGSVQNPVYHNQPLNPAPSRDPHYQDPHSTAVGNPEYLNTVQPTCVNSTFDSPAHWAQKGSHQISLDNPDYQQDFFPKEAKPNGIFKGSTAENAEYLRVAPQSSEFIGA
The experiment in a line: Enzyme inhibitory activity on EGFR (time resolution fluorescence, biotinylated poly-Glu-Tyr substrate). Type of assay: biochemical. Put shortly: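 Insect-cell-expressed EGFR phosphorylated biotinylated poly-Glu-Tyr (4:1) for 60 min at room temperature in TBS with MgCl2, MnCl2, Na3VO4 and BSA. Enzyme 250 ng/ml, substrate 3.125 μg/ml and ATP 125 μM as working solutions. EDTA stop; Eu anti-phosphotyrosine/streptavidin-XL time-resolved fluorescence read; 10-point 4-fold dilutions.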

The next assay concerns the target T2, HER2 (Homo sapiens, UniProt P04626).
T2 construct: purchased Carna Biosciences, Inc; host or cells: insect cell expression system
The experiment in a line: Enzyme inhibitory activity on HER2 (time resolution fluorescence, biotinylated poly-Glu-Tyr substrate). Type of assay: biochemical. Put shortly:
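Insect-cell-expressed HER2 (1000 ng/ml working stock) with biotinylated poly-Glu-Tyr (4:1; 3.125 μg/ml stock) and ATP (290 μM solution) in TBS with MgCl2, MnCl2, Na3VO4 and BSA, 60 min at room temperature. 10-point 4-fold dilutions from a 1 mM top solution. Phosphotyrosine detected by TR-FRET with Eu-antibody and streptavidin-XL.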

The mark [2] stands for this setting: day 5 (start of administration, grouping), 20 mg/kg administrated group, oral, N=6.
[3] abbreviates: day 5 (start of administration, grouping), 80 mg/kg administrated group, oral, N=6.
Where [4] appears, read: day 20, 20 mg/kg orally for 15 consecutive days from day 5.
The mark [5] stands for this setting: day 20, 80 mg/kg orally for 15 consecutive days from day 5.
Where [6] appears, read: EGFR purified from insect cell expression system, ATP solution 125 μM, room temperature, 60 minutes.
Setting [7] is: HER2 purified from insect cell expression system, ATP solution 290 μM, room temperature, 60 minutes.
Where [8] appears, read: enzyme reaction at room temperature for 60 minutes.

T2 sequence (P04626 23-1255): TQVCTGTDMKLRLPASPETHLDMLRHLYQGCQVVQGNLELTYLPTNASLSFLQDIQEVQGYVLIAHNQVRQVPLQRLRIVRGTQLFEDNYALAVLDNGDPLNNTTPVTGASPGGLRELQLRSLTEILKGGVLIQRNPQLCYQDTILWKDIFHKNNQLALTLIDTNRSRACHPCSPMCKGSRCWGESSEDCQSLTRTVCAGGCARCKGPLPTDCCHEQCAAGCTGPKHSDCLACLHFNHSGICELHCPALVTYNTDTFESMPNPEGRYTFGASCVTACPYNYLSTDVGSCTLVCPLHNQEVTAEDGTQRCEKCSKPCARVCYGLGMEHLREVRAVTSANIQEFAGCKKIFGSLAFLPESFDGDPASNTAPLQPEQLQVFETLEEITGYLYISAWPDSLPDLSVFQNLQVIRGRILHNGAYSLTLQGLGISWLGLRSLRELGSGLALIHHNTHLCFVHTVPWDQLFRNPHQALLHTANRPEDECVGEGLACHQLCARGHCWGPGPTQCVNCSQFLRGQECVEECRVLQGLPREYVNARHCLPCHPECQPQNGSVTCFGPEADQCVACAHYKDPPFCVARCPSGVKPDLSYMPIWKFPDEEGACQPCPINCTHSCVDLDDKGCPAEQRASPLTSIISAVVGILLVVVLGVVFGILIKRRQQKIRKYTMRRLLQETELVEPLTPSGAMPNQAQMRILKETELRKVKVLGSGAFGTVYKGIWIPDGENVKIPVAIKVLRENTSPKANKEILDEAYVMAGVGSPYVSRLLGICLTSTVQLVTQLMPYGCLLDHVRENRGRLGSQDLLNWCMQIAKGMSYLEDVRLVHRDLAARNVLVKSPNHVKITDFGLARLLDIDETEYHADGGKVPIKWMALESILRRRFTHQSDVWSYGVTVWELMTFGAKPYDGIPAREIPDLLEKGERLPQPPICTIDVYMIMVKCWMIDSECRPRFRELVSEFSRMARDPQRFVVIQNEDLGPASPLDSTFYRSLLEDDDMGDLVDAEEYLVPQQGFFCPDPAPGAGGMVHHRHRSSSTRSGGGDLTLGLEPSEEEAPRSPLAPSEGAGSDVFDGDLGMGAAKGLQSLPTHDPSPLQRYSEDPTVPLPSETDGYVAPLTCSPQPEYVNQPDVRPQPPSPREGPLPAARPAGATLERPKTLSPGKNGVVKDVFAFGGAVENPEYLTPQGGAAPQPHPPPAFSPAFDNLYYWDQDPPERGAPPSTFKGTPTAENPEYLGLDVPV

`CC#C/C(=N\OCCN1CCCC1)c1ccc2ncnc(Nc3ccc(OCc4cccc(F)c4)c(Cl)c3)c2c1` [VIII-11]: the IC50 in the assay on BT-474 (Homo sapiens, BT-474, 72 h) is 26 nM; at EGFR (setting [6]), 43 nM; against HER2 (setting [7]), 45 nM. The “Mean of tumor size” value is given as 197 mm^3 in assay [1] (setting [2]), 197 mm^3 in assay [1] (setting [3]), 356 mm^3 in assay [1] (setting [4]) and 193 mm^3 in assay [1] (setting [5]). Further, the figures for the “T/C % (ratio of average tumor size, compound-administered group vs control group)” value in assay [1] (setting [4]) and in assay [1] (setting [5]) were 54% and 29%, respectively.

Turning to `CC#C/C(=N\OCCN(C)CCO)c1ccc2ncnc(Nc3ccc(OCc4cccc(F)c4)c(Cl)c3)c2c1.Cl.Cl` [VIII-66], the IC50 was found to be 8 nM in the assay on BT-474, 27 nM on EGFR (setting [6]) and 43 nM against HER2 (setting [7]). The “Mean of tumor size” value is given as 134 mm^3 in assay [1] (setting [2]), 150 mm^3 in assay [1] (setting [3]), 154 mm^3 in assay [1] (setting [4]) and 17 mm^3 in assay [1] (setting [5]). Further, the entries for the “T/C % (ratio of average tumor size, compound-administered group vs control group)” value in assay [1] (setting [4]) and in assay [1] (setting [5]) were 32% and 4%, respectively.

For the compound `CC#C/C(=N\OCCN1CCOCC1)c1ccc2ncnc(Nc3ccc(OCc4ccccn4)c(Cl)c3)c2c1` [VIII-163], the IC50 amounted to 38 nM in the assay on BT-474 (Homo sapiens, BT-474, 72 h); 23 nM at EGFR (setting [8]); 27 nM on HER2 (setting [8]).

In the case of `CC#C/C(=N\OC[C@@H]1C[C@@H](NC(C)=O)CN1)c1ccc2ncnc(Nc3ccc(OCc4cccc(F)c4)c(Cl)c3)c2c1` [VIII-84], the IC50 in the assay on BT-474 came to 28 nM; on EGFR (setting [6]) it was 44 nM; against HER2 (setting [7]) it was 47 nM.

For `Fc1cccc(COc2ccc(Nc3ncnc4ccc(/C=N/OCCN5CCOCC5)cc34)cc2Cl)c1` [Compound V-7], the IC50 in the assay on BT-474 (Homo sapiens, BT-474, 72 h) was 134 nM; against EGFR (setting [6]), 36 nM; against HER2 (setting [7]), 76 nM.

As for `CC#C/C(=N\OCCNC[C@@H]1CCCO1)c1ccc2ncnc(Nc3ccc(OCc4ccccn4)c(Cl)c3)c2c1` [VIII-137], the IC50 in the assay on BT-474 (Homo sapiens, BT-474, 72 h) is 78 nM; on EGFR (setting [8]), 13 nM; against HER2 (setting [8]) it was 14 nM.

With `CC#C/C(=N\OCCNCCNC(C)=O)c1ccc2ncnc(Nc3ccc(OCc4cccc(F)c4)c(Cl)c3)c2c1` [VIII-47], the values for the IC50 in the assay on BT-474, against EGFR (setting [6]) and on HER2 (setting [7]) were 4 nM, 12 nM and 23 nM, respectively.

Turning to `COCC#C/C(=N\OCCN1CCCC1)c1ccc2ncnc(Nc3ccc(OCc4cccc(F)c4)c(Cl)c3)c2c1` [VIII-124], the IC50 came out at 14 nM in the assay on BT-474 (Homo sapiens, BT-474, 72 h); 40 nM against EGFR (setting [8]); 38 nM against HER2 (setting [8]).

For `CC#C/C(=N\OCCN1CC[C@@H](NC(C)=O)C1)c1ccc2ncnc(Nc3ccc(OCc4ccccn4)c(Cl)c3)c2c1` [VIII-149], the IC50 in the assay on BT-474 (Homo sapiens, BT-474, 72 h) was 28 nM; against EGFR (setting [8]), 13 nM; against HER2 (setting [8]), 14 nM.

As to `CC#C/C(=N\OCCN1CC[C@@H](OC(N)=O)C1)c1ccc2ncnc(Nc3ccc(OCc4cccc(F)c4)c(Cl)c3)c2c1` [VIII-71], the IC50 with BT-474 (Homo sapiens, BT-474, 72 h) is 17 nM; against EGFR (setting [6]), 130 nM; against HER2 (setting [7]), 199 nM.

On to `CC#C/C(=N\OC[C@H]1CCCN1CC(=O)O)c1ccc2ncnc(Nc3ccc(OCc4cccc(F)c4)c(Cl)c3)c2c1` [VIII-88], for which the IC50 with BT-474 was found to be 12 nM; against EGFR (setting [6]) it was 47 nM; against HER2 (setting [7]), 56 nM.

Turning to `Fc1cccc(COc2ccc(Nc3ncnc4ccc(/C=N/OCCN5CCCC5)cc34)cc2Cl)c1` [Compound V-6], the IC50 in the assay with BT-474 (Homo sapiens, BT-474, 72 h) was found to be 110 nM; on EGFR (setting [6]), 6.5 nM; on HER2 (setting [7]) it was 3.6 nM.

In the case of `CC#C/C(=N\OCCNCCNC(C)=O)c1ccc2ncnc(Nc3ccc4c(cnn4Cc4cccc(F)c4)c3)c2c1` [VIII-184], the IC50 with BT-474 (Homo sapiens, BT-474, 72 h) came out at 9 nM; against EGFR (setting [8]) it was 10 nM; at HER2 (setting [8]), 7 nM.

For the compound `CC#C/C(=N\OCCNC)c1ccc2ncnc(Nc3ccc(OCc4cccc(F)c4)c(Cl)c3)c2c1` [VIII-27], the IC50 was determined as 13 nM with BT-474, 33 nM against EGFR (setting [6]) and 43 nM against HER2 (setting [7]).

For `CC#C/C(=N\OC[C@H]1CNC[C@H](C)O1)c1ccc2ncnc(Nc3ccc(OCc4ccccn4)c(Cl)c3)c2c1` [VIII-178], the IC50 in the assay on BT-474 (Homo sapiens, BT-474, 72 h) worked out at 36 nM; on EGFR (setting [8]) it was 8.1 nM; on HER2 (setting [8]), 8.2 nM.

With `CNCCO/N=C(\C#CCOC)c1ccc2ncnc(Nc3ccc(S(=O)(=O)c4ccccc4)cc3)c2c1` [VIII-208], the IC50 with BT-474 (Homo sapiens, BT-474, 72 h) worked out at 27 nM; at EGFR (setting [8]), 28 nM; against HER2 (setting [8]), 23 nM.

On to `CC#C/C(=N\OC[C@H]1CCCN1CC#N)c1ccc2ncnc(Nc3ccc(OCc4cccc(F)c4)c(Cl)c3)c2c1` [VIII-86], for which the IC50 with BT-474 (Homo sapiens, BT-474, 72 h) was determined as 13 nM; on EGFR (setting [6]), 244 nM; against HER2 (setting [7]), 304 nM.

As to `CC#C/C(=N\OCCN1CC[C@@H](OC(N)=O)C1)c1ccc2ncnc(Nc3ccc(OCc4ccccn4)c(Cl)c3)c2c1` [VIII-151], the IC50 in the assay on BT-474 (Homo sapiens, BT-474, 72 h) turned out to be 47 nM; against EGFR (setting [8]), 20 nM; on HER2 (setting [8]), 19 nM.

On to `CC#C/C(=N\OC[C@H]1CCCN1CCO)c1ccc2ncnc(Nc3ccc(OCc4cccc(F)c4)c(Cl)c3)c2c1` [VIII-90], for which the IC50 was determined as 9 nM with BT-474, 93 nM against EGFR (setting [6]) and 97 nM at HER2 (setting [7]).

As for `CS(=O)(=O)CCNCCON=C(c1ccccc1)c1ccc2ncnc(Nc3ccc(OCc4cccc(F)c4)c(Cl)c3)c2c1` [VIII-29], the IC50 is 77 nM in the assay with BT-474 (Homo sapiens, BT-474, 72 h); 102 nM against EGFR (setting [6]); 513 nM against HER2 (setting [7]).

`CC#C/C(=N\OCC(=O)NCCN(C)C)c1ccc2ncnc(Nc3ccc(OCc4cccc(F)c4)c(Cl)c3)c2c1` [VIII-226]: the IC50 in the assay with BT-474 (Homo sapiens, BT-474, 72 h) amounted to 5 nM; against EGFR (setting [8]), 20 nM; against HER2 (setting [8]) it was 10 nM.

Regarding `CC#C/C(=N\OC[C@@H]1COCCN1)c1ccc2ncnc(Nc3ccc(OCc4cccc(F)c4)c(Cl)c3)c2c1` [VIII-101], the figures for the IC50 in the assay on BT-474, on EGFR (setting [6]) and against HER2 (setting [7]) were 12 nM, 56 nM and 129 nM, respectively.

Regarding `CNCCO/N=C(\C#CC1CC1)c1ccc2ncnc(Nc3ccc(OCc4cccc(F)c4)c(Cl)c3)c2c1` [VIII-120], the IC50 in the assay with BT-474 (Homo sapiens, BT-474, 72 h) amounted to 32 nM; at EGFR (setting [6]), 33 nM; on HER2 (setting [7]), 29 nM.

As to `CC#C/C(=N\O[C@@H]1CN[C@H](CO)C1)c1ccc2ncnc(Nc3ccc(OCc4ccccn4)c(Cl)c3)c2c1` [VIII-155], the IC50 in the assay with BT-474 (Homo sapiens, BT-474, 72 h) was found to be 28 nM; against EGFR (setting [8]), 10 nM; against HER2 (setting [8]), 8 nM.

As for `O=S1(=O)CCN(CCON=C(c2ccccc2)c2ccc3ncnc(Nc4ccc(OCc5cccc(F)c5)c(Cl)c4)c3c2)CC1` [VIII-12], the IC50 with BT-474 (Homo sapiens, BT-474, 72 h) was 69 nM; on EGFR (setting [6]) it was 209 nM; on HER2 (setting [7]), 227 nM.

With `CC#C/C(=N\OCCN(CC)CCOC)c1ccc2ncnc(Nc3ccc4c(cnn4Cc4cccc(F)c4)c3)c2c1` [VIII-192], the IC50 amounted to 24 nM in the assay on BT-474 (Homo sapiens, BT-474, 72 h); 6.2 nM at EGFR (setting [8]); 14.2 nM against HER2 (setting [8]).

As to `CC#C/C(=N\OCCNC[C@@H]1CCCO1)c1ccc2ncnc(Nc3ccc(OCc4cccc(F)c4)c(Cl)c3)c2c1` [VIII-49], the IC50 with BT-474 came to 28 nM; at EGFR (setting [6]) it was 28 nM; against HER2 (setting [7]) it was 31 nM.

For the origin of these results see patent publication US8202879B2, “Quinazoline derivatives having tyrosine kinase inhibitory activity” (Shionogi & Co., Ltd., priority 2005, dated 2012).
